Measured values reported in patent US20250222038A1, “COLLAGEN MATRIX OR MEMBRANE WITH ANTIMICROBIAL PROPERTIES” (BIOCELLIX SPA, priority 2017, published 2025).

Tests used:
[1] = system: Gram-positive bacteria (genus Staphylococcus); experiment: Antibiotic sensitivity trial (inhibition halos on agar Müller-Hinton plate), Gram-positive isolate; assay type: cell-based; set-up: key to Plate 2 Sensitivity Level: Sensitive(S); Intermediate or Moderately sensitive (I); Resistant (R); conditions: Plate 2 = FIG. 2 right (Gram-positive bacteria); for Plate 2 (Gram+) (mm) inhibition halo: 18-24 hours at 37° C., average for three experiments; for Plate 2 Sensitivity Level: classified according to halo size
Protocol: (§1) In order to assert the antimicrobial capability of the collagen matrix or membrane, lab testing was carried out. Patient biopsies were collected from different types of infected wounds (neuropathic diabetic foot and biofilms). These samples were homogenized and set to culture for 24 hours to observe if there was bacterial growth or not. When bacterial growth is observed, colonies of these cultures were isolated, and with them, a test for microbial sensitivity to the action of nanometals was carried out. […] In order for this trial to be performed, antibiotics commonly used for eliminating these bacteria and at set concentrations were used as controls. […] In order to analyze the effectiveness of copper nanometals and its effectiveness as antimicrobial agents, three concentrations, 1, 5 and 10 mg/ml, were used. […] The trial was carried out as follows: On the surface of an agar Müller-Hinton plate, 100 μl of a bacterial solution (OD600: 0.4) were inoculated and seeded evenly for bacterial colonies to grow. Then, filter paper discs soaked with known concentrations of the different antibiotics are placed. The antibiotic will spread from the agar filter paper radially. The plate was incubated for 18-24 hours at 37° C., and then the growth inhibition halos are measured by interpreting them according to the available data in databases. The results are expressed as: Sensitive(S), Intermediate or Moderately sensitive (I) and Resistant (R). […] To determine the inhibition halo, the diameter surrounding the sense disc on which bacterial growth was not observed was measured on the plate seeded with bacteria in the presence of different antibiotics. In this case, the inhibition halo is expressed in mm. According to the halo size, the bacteria are classified as sensitive to the antibiotic action, resistant to the antibiotic action or of intermediate resistance to the antibiotic action (data that is published in databases). […] Additionally, the purpose of this trial is to rule out that the matrix alone presents some level of antimicrobial action, therefore, a copper-free matrix was used as control. […] Gram-negative bacteria belong to genus Proteus, and Gram-positive bacteria belong to genus Staphylococcus.

[2] = system: Gram-negative bacteria (genus Proteus); experiment: Antibiotic sensitivity trial (inhibition halos on agar Müller-Hinton plate), Gram-negative isolate; assay type: cell-based; set-up: key to Plate 1 Sensitivity Level: Sensitive(S); Intermediate or Moderately sensitive (I); Resistant (R); conditions: Plate 1 = FIG. 2 left (Gram-negative bacteria); for Plate 1 (Gram-) (mm) inhibition halo: 18-24 hours at 37° C., average for three experiments; for Plate 1 Sensitivity Level: classified according to halo size
Protocol: as §1

| SMILES | Plate 2 (Gram+) (mm) inhibition halo [1] [mm] | Plate 2 Sensitivity Level [1] | Plate 1 (Gram-) (mm) inhibition halo [2] [mm] | Plate 1 Sensitivity Level [2] |
| --- | --- | --- | --- | --- |
| CC1(C)S[C@@H]2[C@H](NC(=O)[C@H](N)c3ccccc3)C(=O)N2[C@H]1C(=O)O [AM, Ampicillin] | 12 | Intermediate | 0 | Resistant |
| O=C(O)c1cn(C2CC2)c2cc(N3CCNCC3)c(F)cc2c1=O [CIP, Ciprofloxacin] | 19 | – | 28 | – |
| CC[C@H]1OC(=O)[C@H](C)[C@@H](O[C@H]2C[C@@](C)(OC)[C@@H](O)[C@H](C)O2)[C@H](C)[C@@H](O[C@@H]2O[C@H](C)C[C@H](N(C)C)[C@H]2O)[C@](C)(OC)C[C@@H](C)C(=O)[C@H](C)[C@@H](O)[C@]1(C)O [CLR, Clarithromycin] | 18 | Sensitive | 15 | Intermediate |
